Test results taken from patent US12310967B2, “Compositions and methods of treatment for neurological disorders comprising motor neuron diseases” (Gliapharm SA, priority 2017, dated 2025).

Tests used:
primary mouse astrocytes = test: Extracellular lactate quantification, Example 2; assay type: cell-based; conditions: Astrocyte, 3 nM to 30 μM, 1.5 h, read-out: EC50 release of lactate
Description: Primary cultures of cerebrocortical astrocytes were obtained from 1 to 2-day-old OF1 mouse pups (Charles River). Briefly, cortices were isolated and minced in small pieces under a dissecting microscope. The cells were incubated for 30 min at 37° C. in a solution containing 20 U/ml papain, 1 mM L-cysteine and 10 kU/ml DNase I. After dissociation, papain activity was stopped by the addition of fetal calf serum (FCS). Single-cell suspension was then obtained by mechanical dissociation, which consisted in cells trituration in a DMEM D7777 medium supplemented with 44 mm NaHCO3, 10 ml/L antibiotic/antimycotic solution and 10% FCS. […]
Secretion of L-lactate was measured in the extracellular medium of 96-well plated astrocytes after 90 min stimulation (at 37° C., in 5% CO2/95% air conditions) with Vehicle (DMSO), the compounds of the invention (100 nM to 100 μM) or positive control. […] To quantify lactate concentrations in the extracellular medium, 200 μl of a 0.2M Glycine-semicarbazide buffer (pH 10) containing 3 mM NAD and 14 U/ml LDH was added to each well of a 96-well plate containing 30 μl aliquots of extracellular medium. […] Fluorescence intensity (340 nm excitation/450 nm emission), which represents the amount of NADH produced, was measured, and lactate concentration values were determined relative to a standard curve of L-lactate concentrations. […]

[1] = In vivo pharmacokinetics (microdialysis of prefrontal cortex and plasma); design: species or system mouse; conditions: gavage 100 mg/kg; therapeutic range 100 nM to 1 uM
Description: Mice were anesthetized using isoflurane (2% and 800 mL/min 02). Before surgery, Finadyne (1 mg/kg, s.c.) was administered for analgesia during surgery and the post-surgical recovery period. A mixture of bupivacaine and epinephrine was used for local anesthesia of the incision site of the periost of the skull.
The animals were placed in a stereotaxic frame (Kopf instruments, USA). MetaQuant microdialysis probes with a 3 mm exposed polyacrylonitrile membrane (MQ-PAN 3/3, Brainlink, the Netherlands) were implanted into the prefrontal cortex (coordinates for the tip of the probe: AP=+2.0 mm (to bregma), lateral=−0.7 mm (to midline), ventral=−3.3 mm (to dura), with the incisor bar set at 0.0 mm and an angle of 8°). All coordinates were based on “The mouse brain in stereotaxic coordinates” by Paxinos and Franklin (2004). The probes were attached to the skull with a stainless steel screw and dental cement (Fuji Plus Capsules, Henry Schein, the Netherlands).
In the same surgical procedure, a catheter was placed into the jugular vein to accommodate blood sampling. An indwelling cannula was inserted into the right jugular vein, and exteriorized through an incision on top of the skull. […]
PK was measured for GP-04, GP-05, GP-07, GP-R1 and GP-P1 in the prefrontal cortex and plasma of wild type C56Bl/6 mice by CRO Brainsonline.

SMILES | EC50 (primary mouse astrocytes) [nM] | levels in the prefrontal cortex [1]
Cc1ccccc1NC(=O)C1CCCN(c2ncnc3oc(C)c(C)c23)C1 (stereo not drawn) [F228-0422] | 590 | –
CC(=O)N1CCc2sc(S(=O)(=O)N3CCN(c4ccccc4C)CC3)cc2C1 [P025-0159] | – | need chemical improvement
COc1cc(C)c(Cl)cc1S(=O)(=O)NCc1ccncc1 [T5580243] | – | at therapeutic range
